Assays:
[1] = target: T1, hSkM1 isoform of Na+ channels (Homo sapiens, UniProt P35499); test: Electrophysiological Assay 1: whole-cell patch-clamp of Na+ currents in HEK-293 cells expressing hSkM1; assay type: cell-based; details: for Ki: HEK-293 cells stably expressing hSkM1, concentration that produces half maximal inhibition
T1 construct: expressed in transfected cells
Procedure: Cell preparation: HEK-293 cells stably expressing the hSkM1 isoform of Na^+ channels (generous gift from Dr. A. L. George, Vanderbilt University Medical School) were cultured using standard techniques, as described previously (Verdoorn, T. A, et al., Neuron 4:919-928 (1990)). For electrophysiology, cells were plated onto 35 mm Petri dishes (pre-coated with poly-D-lysine) at a density of 1:40 on the day of re-seeding from confluent cultures. Our experience has been that cells are suitable for recordings for 2-3 days after plating.
Patch-clamp recordings of voltage-sensitive Na^+ currents: Whole-cell voltage-clamp recordings were made using conventional patch-clamp techniques (Hamill et al., Pfluegers Arch. 391:85-100 (1981)) with an Axopatch 200A amplifier (Axon Instruments, Foster City, Calif.). […] The recording chamber was continuously superfused with the external solution (150 mM NaCl, 5.4 mM KCl, 1.8 mM CaCl2, 1 mM MgCl2, 10 mM HEPES, 10 mM glucose, pH 7.4 (NaOH)) at a speed of about 1 mL/min. Recording pipettes were pulled from thick-walled capillaries (WPI, Sarasota, Fla.) and fire-polished. The pipette resistances ranged from 1 to 3 MΩ when the pipettes were filled with internal solution containing (in mM): 110 CsF, 10 NaCl, 5 MgCl2, 11 EGTA, 10 HEPES, pH adjusted to 7.4 with CsOH. Osmolality was set with a difference of 15-20 mmol/kg between external and internal solutions (lower inside the cell). Drugs and intervening wash-outs were applied through a linear array of flow pipes (Drummond Microcaps, 2 μL, 64-mm length). Compounds are dissolved in dimethylsulfoxide (DMSO) to make a 30 mM stock solution, which was subsequently diluted into the external solution to give final concentrations of 0.1-100 μM. At the highest (1%) concentration, DMSO inhibited the size of Na^+ current only slightly. Currents were recorded at room temperature (22-25° C.), filtered at 5 kHz with an active 8-pole Bessel filter (Frequency Devices, Haverhill, Mass.), digitized at 10-50 μs intervals, and stored using Digidata 1200 analog/digital interface with Pclamp6/Clampex software (Axon Instruments). Series resistance was cancelled typically by ˜75% when necessary. The inhibitory potency of drugs was assessed by measuring reductions in the peak amplitude of Na^+ currents induced by increasing concentrations of compounds tested. Na^+ currents were elicited by stepping membrane voltage from holding potentials over the range −100 mV to −50 mV, to a pulse potential of −10 mV. The test pulse duration was 5-10 msec, repeated at a frequency≦1 Hz. Concentration-inhibition curves were fitted with equation 1:
I/Icontrol=1/(1+([compound]/IC50)) Eq. 1
where Icontrol is the maximal Na^+ current in the absence of antagonist, [compound] is the drug concentration, and IC50 is the concentration of compound that produces half maximal inhibition.
The apparent antagonist dissociation constant (Kd) of this compound for inactivated sodium channels is ˜8 nM.
The Ki (the concentration of a compound that produces half maximal inhibition) value for 3-[4-(4-fluorophenoxy)phenyl]-1H-pyrazole-1-carboxamide and other tested compounds are presented in Table 2.

[2] = tested on: maximal electroshock-induced seizures (MES); test: Maximum electroshock seizure test (MES), oral administration to mice; assay type: in vivo; details: 30 minutes before the test, dose protecting 50% of animals; for ED50: Mus musculus, po
Source text: The compounds of the present invention may be tested for in vivo anticonvulsant activity after i.v., p.o. or i.p. injection using a number of anticonvulsant tests in mice, including the maximum electroshock seizure test (MES). Maximum electroshock seizures were induced in male NSA mice weighing between 15-20 g and male Sprague-Dawley rats weighing between 200-225 g by application of current (50 mA, 60 pulses/sec, 0.8 msec pulse width, 1 sec duration, D.C., mice; 99 mA, 125 pulses/sec, 0.8 msec pulse width, 2 sec duration, D.C., rats) using a Ugo Basile ECT device (Model 7801). Mice were restrained by gripping the loose skin on their dorsal surface and saline-coated corneal electrodes were held lightly against the two corneae. Rats were allowed free movement on the bench top and ear-clip electrodes were used. […] A tonic seizure was defined as a hindlimb extension in excess of 90 degrees from the plane of the body. Results were treated in a quantal manner.
The ability of 3-[4-(2,4-difluorophenoxy)phenyl]-1H-pyrazole-1-carboxamide to block maximal electroshock-induced seizures (MES) was determined as described earlier.
3-[4-(2,4-Difluorophenoxy)phenyl]-1H-pyrazole-1-carboxamide was administered p.o. to mice 30 minutes before the test procedure.
The following compounds in Table 1 were tested in MES as described for 3-[4-(2,4-difluorophenoxy)phenyl]-1H-pyrazole-1-carboxamide: […]

[3] = target: rBIIA isoform of Na+ channels (Rattus norvegicus, UniProt P04775); test: Electrophysiological Assay 2: whole-cell patch-clamp of Na+ currents in HEK-293 cells expressing rBIIA; assay type: cell-based; details: for Ki: HEK-293 cells stably expressing rBIIA, concentration that produces half maximal inhibition
Procedure: Cell preparation: HEK-293 (NaIIA-B2) cell line stably expressing the rBIIA isoform of Na^+ channels was established in-house. The cells were cultured using standard techniques, as described previously (Verdoorn, T. A, et al., Neuron 4:919-928 (1990)). For electrophysiology, cells were plated onto poly-D-lysine pre-coated Cellware 35 mm Petri dishes (BIOCOAT, Becton Dickinson) at a density of ˜10^4 cells/dish on the day of re-seeding from confluent cultures. Our experience has been that cells are suitable for recordings for 2-3 days after plating.
Patch-clamp recordings of voltage-sensitive Na^+ currents. Whole-cell voltage-clamp recordings were made using conventional patch-clamp techniques (Hamill et al., Pfluegers Arch. 391:85-100 (1981)) with an Axopatch 200A amplifier (Axon Instruments, Foster City, Calif.). The recording chamber was continuously superfused with the external solution (150 mM NaCl, 5.4 mM KCl, 1.8 mM CaCl2, 1 mM MgCl2, 10 mM HEPES, 10 mM glucose, pH7.4 adjusted with NaOH, osmolality ˜320 mmol/kg) at a speed of about 1 mL/min. Recording pipettes were pulled from the thick-walled capillaries (WPI, Sarasota, Fla.) and fire-polished. The pipette resistances ranged from 1 to 3 MΩ when the pipettes were filled with internal solution containing (in mM): 130 CsF, 20 NaCl, 2 MgCl2, 10 EGTA, 10 HEPES, pH adjusted to 7.4 with CsOH, osmolality ˜310 mmol/kg. Drugs and intervening wash-outs were applied through a linear array of flow pipes (Drummond Microcaps, 2 μL, 64-mm length). Compounds are dissolved in dimethylsulfoxide (DMSO) to make a 30 mM stock solution, which was subsequently diluted into the external solution to give final concentrations of 0.1-100 μM. At the highest (1%) concentration, DMSO inhibited the size of Na^+ current only slightly. Currents were recorded at room temperature (22-25° C.), filtered at 3 kHz with an active 8-pole Bessel filter (Frequency Devices, Haverhill, Mass.), digitized at 10-50 μs intervals, and stored using Digidata 1200 analog/digital interface with Pclamp6/Clampex software (Axon Instruments). Series resistance was cancelled typically by ˜75% when necessary.
The following voltage pulse protocols were used to assess the potency and kinetics of inhibition of the Na^+ channels by the compounds (FIG. 1). [drawing 33]
FIG. 1. Voltage pulse protocols. A. IV-curves. C. Steady-state inactivation. B. Repriming kinetics. D. Time course of binding.
Current-voltage relationship (IV-curve), protocol A, was used to report the voltage at which the maximal inward Na^+ current is achieved. This voltage was used throughout the experiment as testing voltage, Vt. The steady-state inactivation (or, availability) curve, protocol C, was used to get the voltage at which almost complete (≧95%) inactivation of Na^+ channels occurs; it served as voltage for conditioning prepulse, Vc, throughout the experiment. Protocol B reports how fast the channels recover from inactivation at hyperpolarized voltages. This permitted us to set up the duration of the hyperpolarization gap which is used in measurement of the kinetics of binding of compounds to inactivated Na^+ channels (protocol D). Channel repriming under control conditions was fast (≧90% recovery during first 5-10 ms). If a drug substantially retards the repriming process then it becomes possible (protocol D) to accurately measure the kinetics of binding of the inhibitor to inactivated channels as well as the steady-state affinity (k+ and Ki). To estimate k+ values the reduction in peak currents in successive trials with varying pre-pulse duration was plotted as a function of pre-pulse duration and the time constant (τ) measured by mono-exponential fit. A plot of 1/τ as a function of antagonist concentration then allowed calculating of the macroscopic binding rates of the antagonists. To determine Ki values the partial inhibition curves measured by fractional responses in steady-state were fitted with the logistic equation: […]

T1 sequence (P35499 whole entry, canonical isoform): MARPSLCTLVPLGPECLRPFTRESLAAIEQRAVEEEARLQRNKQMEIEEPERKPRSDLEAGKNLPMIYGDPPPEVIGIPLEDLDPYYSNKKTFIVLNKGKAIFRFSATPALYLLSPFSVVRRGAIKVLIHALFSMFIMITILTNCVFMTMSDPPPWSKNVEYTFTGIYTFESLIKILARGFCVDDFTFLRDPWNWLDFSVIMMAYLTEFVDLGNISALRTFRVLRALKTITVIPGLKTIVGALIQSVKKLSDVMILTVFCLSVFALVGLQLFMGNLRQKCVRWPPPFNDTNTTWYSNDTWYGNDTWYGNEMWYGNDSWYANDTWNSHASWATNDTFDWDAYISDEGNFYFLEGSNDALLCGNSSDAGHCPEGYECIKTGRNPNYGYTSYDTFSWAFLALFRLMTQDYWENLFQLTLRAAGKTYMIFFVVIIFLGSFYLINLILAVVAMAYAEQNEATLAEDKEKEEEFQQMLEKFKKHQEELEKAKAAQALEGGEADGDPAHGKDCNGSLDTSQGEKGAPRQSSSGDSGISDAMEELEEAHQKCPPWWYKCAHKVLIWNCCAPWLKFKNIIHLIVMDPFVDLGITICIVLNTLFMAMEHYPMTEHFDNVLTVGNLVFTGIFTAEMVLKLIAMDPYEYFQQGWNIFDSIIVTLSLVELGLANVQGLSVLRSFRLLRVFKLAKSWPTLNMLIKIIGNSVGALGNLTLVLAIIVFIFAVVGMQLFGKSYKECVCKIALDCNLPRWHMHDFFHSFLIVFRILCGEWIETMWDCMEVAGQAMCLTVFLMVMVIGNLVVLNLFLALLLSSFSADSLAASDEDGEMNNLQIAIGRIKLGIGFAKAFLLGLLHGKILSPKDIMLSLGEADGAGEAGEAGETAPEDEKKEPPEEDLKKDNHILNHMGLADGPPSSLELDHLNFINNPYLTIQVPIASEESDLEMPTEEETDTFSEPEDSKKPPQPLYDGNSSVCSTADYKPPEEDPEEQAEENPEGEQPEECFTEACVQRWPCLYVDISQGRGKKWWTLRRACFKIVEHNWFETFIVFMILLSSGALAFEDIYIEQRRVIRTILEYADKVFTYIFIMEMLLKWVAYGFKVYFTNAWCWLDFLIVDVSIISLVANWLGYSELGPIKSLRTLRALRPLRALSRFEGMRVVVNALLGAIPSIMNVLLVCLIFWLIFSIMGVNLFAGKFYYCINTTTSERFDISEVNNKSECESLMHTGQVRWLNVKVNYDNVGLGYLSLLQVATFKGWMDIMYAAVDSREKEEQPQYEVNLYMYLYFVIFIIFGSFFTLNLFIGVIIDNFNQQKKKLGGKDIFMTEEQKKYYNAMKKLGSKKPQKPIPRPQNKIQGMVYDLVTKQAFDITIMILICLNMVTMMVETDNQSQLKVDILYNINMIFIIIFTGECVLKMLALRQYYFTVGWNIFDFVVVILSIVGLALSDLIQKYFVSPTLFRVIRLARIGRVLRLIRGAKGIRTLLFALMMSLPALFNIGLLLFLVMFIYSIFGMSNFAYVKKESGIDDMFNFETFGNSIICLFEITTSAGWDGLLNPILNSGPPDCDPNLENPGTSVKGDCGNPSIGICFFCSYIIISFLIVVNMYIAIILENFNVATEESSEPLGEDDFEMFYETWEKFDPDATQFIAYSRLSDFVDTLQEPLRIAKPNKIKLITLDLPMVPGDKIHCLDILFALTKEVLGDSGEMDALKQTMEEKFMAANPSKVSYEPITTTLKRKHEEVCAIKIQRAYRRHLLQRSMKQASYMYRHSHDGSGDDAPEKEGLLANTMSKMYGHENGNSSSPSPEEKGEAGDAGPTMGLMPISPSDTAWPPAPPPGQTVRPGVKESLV

Ki [1] [nM]	Compound	ED50 [2] [mg/kg]	further results
9	1-[3-[4-(4-Nitrophenoxy)phenyl]-1H-pyrazolyl]ethanone	–	–
–	CS(=O)(=O)NCCn1nccc1-c1ccc(Oc2ccc(F)cc2)cc1 [1-[2-(Methanesulfonylamino)ethyl]-5-[4-(4-fluorophenoxy)phenyl]-1H-pyrazole]	7.5	–
–	CC(=O)N(C)n1nccc1-c1ccc(Oc2ccc(F)cc2)cc1 [2-(N-methylacetamido)-3-[4-(4-fluorophenoxy)phenyl]-2H-pyrazole]	2.9	–
–	Fc1ccc(Oc2ccc(-c3ncc[nH]3)cc2)cc1 [2-[4-(4-Fluorophenoxy)phenyl]-1H-imidazole]	–	Ki [3]: 1100 nM
–	NC(=O)c1coc(-c2ccc(Oc3ccc(F)cc3)cc2)n1 [2-[4-(4-Fluorophenoxy)phenyl]oxazole-4-carboxamide]	–	Ki [3]: 1310 nM
–	CN1CCN(C(=O)Cn2nccc2-c2ccc(Oc3ccc(F)cc3)cc2)CC1 [2-{5-[4-(4-Fluorophenoxy)phenyl]-pyrazol-1-yl}-1-(4-methyl)piperazine-1-yl-ethanone]	–	MES p.o. ED50 [2]: 10 mg/kg
15	NC(=O)n1ccc(-c2ccc(Oc3ccccc3)cc2)n1 [3-(4-phenoxyphenyl)-1H-pyrazole-1-carboxamide]	–	–
–	NC(=O)n1ccc(-c2ccc(Oc3ccc(F)cc3)c(F)c2)n1 [3-[3-fluoro-4-(4-fluorophenoxy)phenyl]-1H-pyrazole-1-carboxamide]	4.5	–
10	NC(=O)n1ccc(-c2ccc(Oc3ccc(F)cc3F)cc2)n1 [3-[4-(2,4-Difluorophenoxy)phenyl]-1H-pyrazole-1-carboxamide]	3.5	–
8	NC(=O)n1ccc(-c2ccc(Oc3ccc(F)cc3)cc2)n1 [3-[4-(4-Fluorophenoxy)phenyl]-1H-pyrazole-1-carboxamide]	7	inhibition of voltage-gated sodium currents ([1]; HEK-293 cells stably expressing hSkM1 sodium channels): dose-dependent inhibition; Kd ([1]; HEK-293 cells stably expressing hSkM1 sodium channels, read-out: apparent antagonist dissociation constant (Kd) for inactivated sodium channels): ~8 nM; potency towards Na+ channels in their resting states ([1]; hSkM1, blocking effect highly sensitive to the holding voltage): weak potency
–	CN(C)C(=O)n1ccc(-c2ccc(Oc3ccc(F)cc3)cc2)n1 [3-[4-(4-Fluorophenoxy)phenyl]-1H-pyrazole-1-carboxylic Acid Dimethylamide]	8.6	–
–	Fc1ccc(Oc2ccc(-c3cc[nH]n3)cc2)cc1 [3-[4-(4-Fluorophenoxy)phenyl]-1H-pyrazole]	8	–
11	NC(=O)n1ccc(-c2ccc(Oc3ccc([N+](=O)[O-])cc3)cc2)n1 [3-[4-(4-Nitrophenoxy)phenyl]-1H-pyrazole-1-carboxamide]	2	–
–	Cc1nc(-c2ccc(Oc3ccc(F)cc3F)cc2)c[nH]1 [4-[4-(2,4-Difluorophenoxy)phenyl]-2-methyl]-1H-imidazole]	–	MES p.o. ED50 [2]: 7.5 mg/kg
–	Cl.Fc1ccc(Oc2ccc(-c3c[nH]cn3)cc2F)cc1 [4-[4-(4-Fluorophenoxy)-3-fluorophenyl]-1H-imidazole, hydrochloride salt]	–	Ki [3]: 250 nM; inhibition of voltage-gated sodium currents ([3]; HEK-293 cells stably expressing the rBIIA isoform of Na+ channels): dose-dependent inhibition; Kd ([3]; HEK-293 cells stably expressing the rBIIA isoform of Na+ channels, read-out: apparent antagonist dissociation constant (Kd) for inactivated sodium channels): 250 nM; potency towards Na+ channels in their resting states ([3]; rBIIA, blocking effect highly sensitive to the holding voltage): weak potency
–	Fc1ccc(Oc2ccc(-c3c[nH]cn3)cc2F)cc1 [4-[4-(4-Fluorophenoxy)-3-fluorophenyl]-1H-imidazole]	3.2	–
20	NC(=O)c1nc(-c2ccc(Oc3ccc(F)cc3)c(F)c2)cs1 [4-[4-(4-Fluorophenoxy)-3-fluorophenyl]-thiazole-2-carboxamide]	–	–
–	Fc1ccc(Oc2ccc(-c3c[nH]cn3)cc2)cc1 [4-[4-(4-Fluorophenoxy)phenyl]-1H-imidazole]	4.2	–
–	NC(=O)c1ccc(-c2ccc(Oc3ccc(F)cc3)cc2)[nH]1 [5-[4-(4-Fluorophenoxy)phenyl]-pyrrole-2-carboxamide]	10	–
110	O=[N+]([O-])c1ccc(Oc2ccc(-c3cc[nH]n3)cc2)cc1 [5-[4-(4-nitrophenoxy)phenyl]-1H-pyrazole, 3-[4-(4-nitrophenoxy)phenyl]-1H-pyrazole]	–	–
–	COC(=O)c1ccc(-c2ccc(Oc3ccc(F)cc3)cc2)[nH]1 [Methyl 5-[4-(4-Fluorophenoxy)phenyl]pyrrole-2-carboxylate]	6	–
